US20250236878A1 (priority 2019, published 2025)
Read-outs that look alike come from different tables or passages of the source.

Legend:
[1] = test system: field mustard (Brassica rapa) seedlings; assay: Root hair and lateral root elongation in liquid-culture grown field mustard seedlings (Example 13); settings: for Experiment A: Average Root Hair Length Per Plant (mm) / Experiment B: Average Length of Three Longest Lateral Roots Per Plant (mm) / Experiment A: Average Root Hair Length Per Plant, % of UTC / Experiment B: Average Length of Three Longest Lateral Roots Per Plant, % of UTC: field mustard seedlings, peptide 10 μM; for Experiment A: Average Root Hair Length Per Plant (mm) / Experiment B: Average Length of Three Longest Lateral Roots Per Plant (mm) / average lateral root length compared to untreated control / average root hair length compared to untreated control / increases in average lateral root length relative to control / increases in root hair length relative to control: liquid culture; for Experiment A: Average Root Hair Length Per Plant (mm) / Experiment B: Average Length of Three Longest Lateral Roots Per Plant (mm): about three days; for Experiment A: Average Root Hair Length Per Plant (mm): UTC = 0.137; for Experiment B: Average Length of Three Longest Lateral Roots Per Plant (mm): UTC = 0.632; for average lateral root length compared to untreated control / average root hair length compared to untreated control / increases in average lateral root length relative to control / increases in root hair length relative to control: approximately three days
[2] = test system: Citrus trees infected with Candidatus Liberibacter asiaticus; format: in vivo, Citrus x paradisi
[3] = test system: Citrus trees infected with CLas; parameters: species or system Citrus sinesis; settings: in vivo
[4] = test system: Citrus trees infected with CLas; format: in vivo, Citrus x paradisi; Citrus sinesis; settings: average of 'Ruby Red' and 'Valencia'
From the text: Treatments as previously described in Example 3; β-1,3-Endoglucanase from barley SEQ ID NO: 731 (Treatment 1) and Bt.4Q7Flg22 from Bacillus thurigiensis SEQ ID NO: 226 (Treatment 5) increased fruit yield (kg/tree) as described in Table 56. Fruit quality, and juice quality of ‘Valencia’ oranges are described in Table 57.
For direct comparison of the treatment results between grapefruit (‘Ruby Red’) and orange (‘Valencia’) are referenced in Table 56 above.

[5] = test system: Citrus trees infected with CLas; assay: Recovery composition trunk injection: 'Valencia' orange fruit yield (Examples 3, 19); format: in vivo, Citrus sinesis; settings: for Average Yield (Relative to Untreated) / Average Yield (kg per tree): 'Valencia' orange; for Average Yield (Relative to Untreated) / Average Yield (kg per tree) / increased yield compared to the untreated control: trunk injection; for increased yield compared to the untreated control: 'Valencia' trees; for yield, average relative to control: 'Valencia', combined average of 2 sites (Table 56)
[6] = test system: Citrus trees infected with Candidatus Liberibacter asiaticus (CLas); parameters: species or system Citrus sinensis; settings: in vivo
[7] = test system: Citrus trees infected with Candidatus Liberibacter asiaticus (CLas); parameters: species or system Citrus sinensis; settings: in vivo; remark: listed apart in the source
[8] = test system: corn hybrids Beck's 6127 BHMF and 6127 DVMF; settings: in vivo
[9] = test system: Candidatus Liberibacter asiaticus (CLas); settings: in vivo
[10] = test system: Citrus trees infected with Candidatus Liberibacter asiaticus; parameters: species or system Citrus x paradisi; settings: in vivo
[11] = test system: HLB-infected citrus trees; parameters: species or system Citrus sinesis; Citrus paradisi; settings: in vivo
[12] = test system: HLB-infected citrus trees; assay: Citrus trials of Examples 20-24: fruit yield, size, count and drop, average over orange and grapefruit trials; format: in vivo, Citrus sinesis; Citrus paradisi
Protocol: All fruit with a diameter greater than or equal to 1.6 inches (40 mm) were hand-picked and collected for each tree. The total “Fruit Weight” (in kilograms) per individual tree was measured and recorded. Trees with total fruit weights less than or greater than 2 standard deviations (2STDEV) from the trial mean were considered to be outliers and removed from the dataset. Fruit size was assessed as the “Average Weight per Fruit” in grams (weight of 20 random fruit per tree, divided by 20) and “Average Fruit Diameter” in millimeters, as described in Example 1. The “Average Fruit Count” per tree was assessed as the total “Fruit Weight” divided by “Average Weight per Fruit”. “Fruit Drop” was assessed as for Example 1. Fruit quality was assessed as for Example 2, with the exception that one set of fruit consisted for 15 total fruit, each corresponding to a sampling of 3 fruit from 5 trees of the same experimental treatment block. Each set of 15 fruit were weighed (gram; g) and then juiced together. Average yield, % fruit drop, fruit size, and juice quality for each of the tested compositions are described in Examples 20-24.

| Compound | Experiment A: Average Root Hair Length Per Plant (mm) [1] [mm] | Experiment B: Average Length of Three Longest Lateral Roots Per Plant (mm) [1] [mm] | Experiment A: Average Root Hair Length Per Plant, % of UTC [1] | Experiment B: Average Length of Three Longest Lateral Roots Per Plant, % of UTC [1] | average lateral root length compared to untreated control [1] | average root hair length compared to untreated control [1] | further results |
| --- | --- | --- | --- | --- | --- | --- | --- |
| GIRDAPAGNE (listed as Macleaya cordata) [SEQ ID NO: 746] | 0.165 | 0.822 | (120% of UTC) | (130% of UTC) | Increased | increased |  |
| N[C@@H](CS)C(=O)O [L-Cysteine, L-cysteine] |  |  |  |  |  |  | Average Yield (Relative to Untreated) ([2]; […], trunk injection): (101%); Average Yield (kg per tree) ([2]; […], trunk injection): 34.8 kg per tree; Average Fruit Diameter (Relative to Untreated) [3]: (104%); Average Fruit Diameter (mm) [3]: 62.52 mm; Brix:CA Ratio [3]: 12.76; Brix:CA Ratio (Relative to Untreated) [3]: (+1.51); fruit size and ^oBrixc to Citric Acid ratio (Brix:CA) relative to the untreated control [3]: increased; Average Yield (Relative to Untreated), Average of 2 sites [4]: (103%); Average Yield (Relative to Untreated) [5]: (105%); Average Yield (kg per tree) [5]: 42.3 kg per tree; increased yield compared to the untreated control [5]: +2.0 kg per tree; yield, average relative to control [5]: 103% |
| GGIRTAITGNE (listed as Vigna angularis) [SEQ ID NO: 748] | 0.151 | 0.929 | (110% of UTC) | (147% of UTC) | Increased | increased |  |
| DRLSSGKRINSAKDDAAGLAIA (listed as Bacillus thuringiensis) [Bt.4Q7Flg22Syn01, Modified FLG22-Bt4Q7 (S13K)] |  |  |  |  |  |  | total increased yield (kg) per tree [6]: 26%; Brix [7]: 9.4; juice content [7]: 46% |
| GGIRRAPTGNER [SEQ ID NO: 751] |  |  |  |  | Increased | increased |  |
| GGISASPTGN (listed as Lactuca sativa) [SEQ ID NO: 749] | 0.182 | 1.058 | (132% of UTC) | (168% of UTC) | Increased | increased | increases in average lateral root length relative to control [1]: +68%; increases in root hair length relative to control [1]: +32% |
| GGIRVAATGKER (Glycine max) [SEQ ID NO: 608] |  |  |  |  | Increased | increased |  |
| DRLSSGKRINSASDDAAGLAIA (listed as Bacillus thuringiensis) [Bt.4Q7Flg22, Flg22 flagellin-associated polypeptide from Bacillus thuringiensis strain 4Q7] |  |  |  |  |  |  | Average Yield (Relative to Untreated) ([2]; in vivo): (108%); Average Yield (kg per tree) ([2]; in vivo): 37.2 kg per tree; increased yield compared to the untreated control ([2]; in vivo): 2.6 kg per tree; total increased yield (kg) per tree [6]: 33%; average yield benefit over the control corn plants [8]: +6.44 flu/Ac; decreased bacterial titers relative to the untreated control [9]: 20%; reduction in CLas bacterial titers compared to initial levels [9]: 16%; Average Fruit Diameter (Relative to Untreated) [3]: (101%); Average Fruit Diameter (mm) [3]: 60.72 mm; Brix:CA Ratio [3]: 12.11; Brix:CA Ratio (Relative to Untreated) [3]: (+0.86); fruit size and ^oBrixc to Citric Acid ratio (Brix:CA) relative to the untreated control [3]: increased; fruit size, juice volume, % juice content and ^oBrixc to Citric Acid ratio (Brix:CA) relative to the untreated control [10]: increased; Average Yield (Relative to Untreated), Average of 2 sites [4]: (113%); Average Yield (Relative to Untreated) [5]: (119%); Average Yield (kg per tree) [5]: 48.1 kg per tree; increased yield compared to the untreated control [5]: 7.8 kg per tree; yield, average relative to control [5]: 113% |
| GGIRAAPTGNER (Glycine max) [GmRHPP, Root Hair Promoting Peptide, Glycine max] | 0.172 | 0.971 | (125% of UTC) | (154% of UTC) | Increased | increased | increases in average lateral root length relative to control [1]: +54%; increases in root hair length relative to control [1]: +25%; reduction in CLas bacterial titers compared to initial levels [9]: 17%; ^oBrixc:Citric Acid Ratio and pounds-solids per tree [11]: increased; more total sugar than control trees treated with surfactant alone, on average [11]: 13.500; increased yield (kg fresh fruit per tree) relative to control trees treated with surfactant control alone, on average ([12]; foliar (Table 73)): 13.9%; decrease in fruit drop relative to surfactant control, on average ([12]; foliar (Table 74)): 22%; more fruit retained at harvest relative to surfactant control, on average ([12]; foliar (Table 74)): 19%; effect on fruit size ([12]; foliar (Table 75)): no effect; fruit weigh more than fruit from control trees treated with surfactant alone, on average ([12]; foliar (Table 75)): 6.2% |
| GGIRDAPTGNER [SEQ ID NO: 752] |  |  |  |  | Increased | increased |  |
| GGIRASPTGNER [SEQ ID NO: 755] |  |  |  |  | Increased | increased |  |
| GGARAAPAGEER (Brachypodium distachyon) [SEQ ID NO: 747] | 0.137 | 0.959 | (99% of UTC) | (152% of UTC) | Increased | did not improve |  |
| GGIRAARTGNER [SEQ ID NO: 753] |  |  |  |  | Increased | increased |  |
| GGIRRARTGNE (listed as Vigna radiata) [SEQ ID NO: 750] | 0.147 |  | (107% of UTC) |  | Increased | increased |  |
| GGIRAAPTGKER [SEQ ID NO: 754] |  |  |  |  | Increased | increased |  |
| GGIRAAPT (listed as Physcomitrella patens) [SEQ ID NO: 745] | 0.145 | 0.853 | (105% of UTC) | (135% of UTC) | Increased | increased |  |
| GGIRATPTENER (Glycine max) [SEQ ID NO: 607] |  |  |  |  | Increased | increased |  |
